Source: publication PMC10065799, “High-throughput profiling of sequence recognition by tyrosine kinases and SH2 domains using bacterial peptide display” (eLife, 2023)
One block for each sequence: values may come before it.

Experiments:
Assay in all cases: pTyr-Var library bacterial peptide display kinase screen (enrichment scores)
[1] = molecular target: c-Src kinase domain (Homo sapiens, UniProt P12931); type: biochemical; details: for Screen: sheet "Src";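 for screen: log2 fold change in enrichment of variant over reference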
[2] = system: EPHB1 kinase domain; type: biochemical, human; details: for Screen: sheet EPHB1, effect of the variant peptide relative to its reference peptide in the pTyr-Var library screen (enrichment scores); for Screen (variant relative to reference peptide, measured in the pTyr-Var library screen): sheet "EPHB1", variant seq vs reference seq, bacterial peptide display enrichment
[3] = system: EPHB2 kinase domain; type: biochemical, human; details: sheet EPHB2; effect of variant peptide relative to its reference peptide in the pTyr-Var library screen (enrichment scores);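 note: log2 fold change in enrichment of variant over reference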
[4] = molecular target: T1, c-Abl kinase domain (Mus musculus, UniProt P00520); type: biochemical;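 note: log2 fold change in enrichment of variant over reference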
T1 sequence (P00520 242-493 limits assumed): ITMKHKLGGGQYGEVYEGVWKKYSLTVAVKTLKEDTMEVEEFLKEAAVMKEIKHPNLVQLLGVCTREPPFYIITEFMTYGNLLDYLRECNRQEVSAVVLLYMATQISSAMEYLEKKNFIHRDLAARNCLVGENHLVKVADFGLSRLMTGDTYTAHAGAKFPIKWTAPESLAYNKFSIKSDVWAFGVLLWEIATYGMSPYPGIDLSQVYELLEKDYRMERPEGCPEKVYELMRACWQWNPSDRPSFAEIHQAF

[5] = system: Fer kinase domain; type: biochemical, mouse; details: sheet "Fer";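 note: log2 fold change in enrichment of variant over reference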
[6] = variant peptide versus its reference peptide in the pTyr-Var library screen
[7] = fig5-data2, sheet "Abl", Screen for the variant/reference peptide pair, pTyr-Var library
[8] = variant peptide relative to its reference peptide, pTyr-Var library screen enrichment
[9] = effect of the variant peptide relative to its reference peptide in the pTyr-Var library screen
[10] = sheet "Abl", effect of variant peptide relative to its reference peptide in pTyr-Var library screen (enrichment)
[11] = value of the variant peptide against its reference peptide in the pTyr-Var library screen with Fer

Sequence: QNTADYFDLFG [PTPN11_Y62_G60A_YF]
Screen [1, 6]: -1.145 | Screen [2]: -0.5569 | Screen [3]: -0.5539

Sequence: TTEHIYGDKFF [UBA7_Y524_N527K]
Screen [1, 6]: 0.1479 | Screen [5, 8]: -2.246

Sequence: IPGGIYNADLN [CST4_Y35_D36N]
Screen [1, 9]: -0.256

Sequence: SAAAIYMVRHP [PMP22_Y117_T118M]
Screen [1, 6]: -0.2351 | Screen [2]: 2.191 | Screen [3]: 1.843

Sequence: RLEPVYFVAPA [LAMC2_Y250_D247E]
Screen [1, 9]: -0.2779 | Screen [2]: 0.4539 | Screen [3]: 0.4501

Sequence: IDSTPYGQWFE [RPS8_Y109_R110G_YF]
Screen [1, 6]: 3.305

Sequence: KMKGDYFRSLA [YWHAG_Y130_Y133S_YF]
Screen [1, 6]: -2.206 | Screen [4, 10]: -4.108

Sequence: EALDFYGEVRT
Enrichment score (mean) ([1]; pTyr-Var library screen with c-Src, sheet "Src substrates": annotated Src substrate sites, 11-residue peptide SITE_+/-5_AA, mean): 1.015

Sequence: EPSLVYMVTKI [CPS1_Y768_D767V]
Screen [5, 11]: 1.098

Sequence: PLDGEYFTLHI [TP53_Y327_Q331H]
Screen [1, 6]: -0.3825

Sequence: NRLTDYFELLL [BBS10_Y536_P539L_YF]
Screen [2]: -2.013

Sequence: DAHFTYSRFPW [LY75_Y888_D884A_YF]
Screen [1, 9]: 0.1806 | Screen [2]: -0.9728 | Screen [3]: -0.5554

Sequence: RFGRKYKKVRF [F8_Y442_I438F]
Screen [4, 7]: -0.368

Sequence: QNKEDYDGLKE [GSTO1_Y139_A140D]
Screen [5, 11]: -0.3459

Sequence: PRIHSYRGHLW [VHL_Y112_R107P]
Screen [1, 6]: -2.322 | Screen (variant relative to reference peptide, measured in the pTyr-Var library screen) [2]: -0.7646

Sequence: RMDGKYACSFT [FLNB_Y704_T703K_YF]
Screen [1, 9]: -2.226

Sequence: PEAALYGRFTF [FYN_Y440_I445F]
Screen [1, 9]: 0.2008 | Screen [5, 11]: 0.7423

Sequence: RCQDLYSARDL [SART1_Y249_R245C]
Screen [1, 6]: 2.461 | Screen [5, 8]: 2.483 | Screen [2]: 1.546

Sequence: LVKDPYVMFPQ [PLEKHG2_Y489_P484L]
Screen [1, 6]: 0.6915 | Screen [4, 7]: 1.829

Sequence: HDRNTYEKFLE [TF_Y666_G671E_YF]
Screen [1, 6]: -1.841

Sequence: RGDVIYKGFED [NFU1_Y194_G189R]
Screen [1, 6]: -0.4435

Sequence: MVSLFYGTAIF [OR10C1_Y251_L255I]
Screen [1, 6]: -0.3478

Sequence: RKPDIYGRLAS [MCM4_Y459_E460G]
Screen [1, 9]: 0.1835

Sequence: IMVFVYCRVFQ [ADRB2_Y219_S220C]
Screen [4, 7]: 1.764

Sequence: LRFDSYWSFCN [SLC20A2_Y433_S434W_YF]
Screen [1, 6]: 2.108

Sequence: KSSDVYVSFDC [SORL1_Y136_Y141C_YF]
Screen [1, 6]: -0.3615 | Screen [5, 8]: -2.678 | Screen (variant relative to reference peptide, measured in the pTyr-Var library screen) [2]: -0.2812

Sequence: DISEPYEVFRI [IRF8_Y107_K108E_YF]
Screen [1, 9]: 2.852 | Screen [5, 11]: 4.437

Sequence: CEAVEYLESKQ [BTK_Y511_M509V]
Screen [4, 7]: 1.602

Sequence: WQQQSYLDSEI [CTNNB1_Y30_G34E]
Screen [4, 7]: 2.603

The remaining lines, values ahead:

Screen [4, 7]: -0.1317
Sequence: CGTPDYIDPEI [PRKCG_Y521_A523D]

Screen [2]: 1.461
Sequence: LGSVVYAQSKE [KCNQ2_Y226_H228Q]

Screen [4, 7]: 0.5821
Sequence: TEGNGYISFNE [LCP1_Y28_D24E]

Screen [4, 7]: 0.1947
Sequence: IGHGSYAKVLL [PRKCZ_Y263_R260H]

Screen [4, 7]: 0.8312
Sequence: FQRITYHNWRH [PDE6B_Y556_R552Q_YF]

Screen [4, 10]: 1.898
Sequence: RLGDLYKEEMR [VIM_Y150_E151K]

Screen [4, 10]: 0.5221
Sequence: AVDDKYSRREE [SART1_Y685_I681V]

Screen [2]: -1.547 | Screen [3]: -2.255
Sequence: MWGSDYVHLSR [MAP3K4_Y582_Q584H]

Screen [4, 7]: -0.6744
Sequence: KRRGPYEMSPS [PLPP7_Y172_T174M]

Screen [5, 8]: -0.4655
Sequence: DTFDPYLDIAL [USP36_Y268_V271I_YF]

Screen [4, 7]: -1.303
Sequence: SLIDGYFRLTE [JAK2_Y372_A377E_YF]

Screen [4, 7]: 0.6024
Sequence: LVQAEYWHDRI [PPT1_Y185_P189R]

Screen [2]: 0.5887
Sequence: LAIEWYVVVCK [RHO_Y136_R135W]

Screen [4, 7]: -0.6166
Sequence: ERIEFYELNKK [PMM2_Y145_D148N]

Screen [3]: -0.9592
Sequence: LIGWRYDDPEV [HSPA9_Y128_R126W]

Screen [4, 10]: -1.38
Sequence: TENAGYFFRIS [TTN_Y31721_V31725I_YF]

Screen [4, 7]: 1.009
Sequence: FAANFYKLLGN [ROR2_Y646_D644N_YF]

Screen [4, 7]: -0.2428
Sequence: DKATEYSQFMR [MAX_Y70_I71S_YF]

Screen [5, 11]: -3.553 | Screen [2]: -1.632
Sequence: QADVTYVNTQL [MERTK_Y872_I871T]

Screen [4, 7]: -0.1841
Sequence: FLAVGYHKPRI [IDS_Y225_H229R]

Screen [3]: -0.5126
Sequence: GFILMYDITNK [RAB3C_Y110_E115K]
